Test results as given in ChEMBL document CHEMBL1671744 (Antimicrob Agents Chemother, 2010).
≈ marks a conversion by molar mass, not a printed value. Where a SMILES comes first, the peptide text is derived from it. [ ]: non-standard residue; d: D form. The star is where a group is joined. Leu(5,5,5,5',5',5'-F6) = N[C@@H](CC(C(F)(F)F)C(F)(F)F)C(=O)O; Lauroyl = CCCCCCCCCCCC(=O)*

Tests used:
[1] = test system: Staphylococcus epidermidis; assay: Antimicrobial activity against methicillin-resistant Staphylococcus epidermidis; assay type: functional
Staphylococcus aureus = assay: Antimicrobial activity against methicillin-resistant Staphylococcus aureus; assay type: functional
Aspergillus fumigatus [2] = assay: Antimicrobial activity against Aspergillus fumigatus; assay type: functional
Escherichia coli [3] = assay: Antimicrobial activity against Escherichia coli; assay type: functional
[4] = Toxicity in RBC assessed as hemolysis at 25 uM; assay type: cell-based; settings: erythrocyte
Bacillus subtilis = assay: Antimicrobial activity against Bacillus subtilis; assay type: functional
in vitro = settings: red blood cells
[5] = Toxicity in RBC assessed as hemolysis at 50 uM at pH 7.4; assay type: cell-based; settings: erythrocyte, pH 7.4, 50 µM
Escherichia coli [6] = assay: Antimicrobial activity against Escherichia coli at pH 7.4; assay type: functional
Escherichia coli [7] = assay: Antimicrobial activity against Escherichia coli at pH 5.5; assay type: functional
Aspergillus fumigatus [8] = assay: Antimicrobial activity against Aspergillus fumigatus at pH 7.4; assay type: functional
Aspergillus fumigatus [9] = assay: Antimicrobial activity against Aspergillus fumigatus at pH 5.5; assay type: functional

SMILES | MIC (Aspergillus fumigatus [2]) | MIC (Escherichia coli [3]) | MHC [4] | MIC (Bacillus subtilis) | HC50 (in vitro) | other results
NC[C@H]1O[C@@H](O[C@@H]2[C@@H](O[C@@H]3O[C@H](COC(=O)Nc4ccccc4)[C@@H](O[C@@H]4O[C@H](CN)[C@@H](O)[C@H](O)[C@H]4N)[C@H]3OC(=O)Nc3ccccc3)[C@@H](O)[C@H](N)C[C@@H]2N)[C@H](N)[C@@H](O)[C@@H]1O.O=C(O)C(F)(F)F | – | – | – | – | – | MIC [1]: 0.5 µg/mL; MIC (Staphylococcus aureus): 1 µg/mL
CC(C)C[C@@H](N)C(=O)N[C@@H](CCCCN)C(=O)N[C@@H](CCCCN)C(=O)N[C@H](CC(C)C)C(=O)N[C@H](CC(C)C)C(=O)N[C@H](CC(C)C)C(=O)N[C@@H](CCCCN)C(=O)N[C@@H](CCCCN)C(=O)N[C@H](CC(C)C)C(=O)N[C@H](CC(C)C)C(=O)N[C@@H](CCCCN)C(=O)N[C@@H](CCCCN)C(=O)N[C@H](CC(C)C)C(N)=O | 50 µM (≈ 78.9 µg/mL) | > 50 µM | Non-toxic | – | – | –
CCCCCCCCCCCC(=O)N[C@H](CC(C)C)C(=O)N[C@@H](CCCCN)C(=O)N[C@@H](CCCCN)C(=O)N[C@H](CC(C)C)C(=O)N[C@H](CC(C)C)C(=O)N[C@H](CC(C)C)C(=O)N[C@@H](CCCCN)C(=O)N[C@@H](CCCCN)C(=O)N[C@H](CC(C)C)C(=O)N[C@H](CC(C)C)C(=O)N[C@@H](CCCCN)C(=O)N[C@@H](CCCCN)C(=O)N[C@H](CC(C)C)C(N)=O | 6.25 µM (≈ 11 µg/mL) | 25 µM (≈ 44 µg/mL) | Non-toxic | – | – | –
CC[C@H](C)[C@H](NC(=O)CN)C(=O)NCC(=O)N[C@@H](CCCCN)C(=O)N[C@@H](Cc1ccccc1)C(=O)N[C@@H](CC(C(F)(F)F)C(F)(F)F)C(=O)N[C@@H](Cc1cnc[nH]1)C(=O)N[C@@H](C)C(=O)N[C@@H](C)C(=O)N[C@@H](CCCCN)C(=O)N[C@@H](CCCCN)C(=O)N[C@@H](Cc1ccccc1)C(=O)N[C@@H](C)C(=O)N[C@@H](CCCCN)C(=O)N[C@@H](C)C(=O)N[C@@H](Cc1ccccc1)C(=O)N[C@H](C(=O)N[C@@H](C)C(=O)N[C@@H](CCC(=O)O)C(=O)N[C@@H](CC(C(F)(F)F)C(F)(F)F)C(=O)N[C@@H](CCSC)C(=O)N[C@@H](CC(N)=O)C(=O)N[C@@H](CO)C(N)=O)C(C)C (H-GIGKF[Leu(5,5,5,5',5',5'-F6)]HAAKKFAKAFVAE[Leu(5,5,5,5',5',5'-F6)]MNS-NH2) | – | 0.92 µM (≈ 2.48 µg/mL) | – | 0.92 µM (≈ 2.48 µg/mL) | 7.4 µM | –
CCCCCCCCCCCC(=O)N[C@H](CC(C)C)C(=O)N[C@@H](Cc1cnc[nH]1)C(=O)N[C@@H](Cc1cnc[nH]1)C(=O)N[C@H](CC(C)C)C(=O)N[C@H](CC(C)C)C(=O)N[C@@H](Cc1cnc[nH]1)C(=O)N[C@@H](Cc1cnc[nH]1)C(=O)N[C@H](CC(C)C)C(=O)N[C@H](CC(C)C)C(=O)N[C@@H](Cc1cnc[nH]1)C(=O)N[C@@H](Cc1cnc[nH]1)C(=O)N[C@H](CC(C)C)C(N)=O (Lauroyl-[dL]HH[dL][dL]HH[dL][dL]HH[dL]-NH2) | – | – | – | – | – | MHC [5]: Non-toxic; MIC (Escherichia coli [6]): > 100 µM; MIC (Escherichia coli [7]): > 100 µM; MIC (Aspergillus fumigatus [8]): > 100 µM; MIC (Aspergillus fumigatus [9]): 6.2 µM (≈ 10.5 µg/mL)
CC[C@H](C)[C@H](NC(=O)CN)C(=O)NCC(=O)N[C@@H](CCCCN)C(=O)N[C@@H](Cc1ccccc1)C(=O)N[C@@H](CC(C)C)C(=O)N[C@@H](Cc1c[nH]cn1)C(=O)N[C@@H](CO)C(=O)N[C@@H](C)C(=O)N[C@@H](CCCCN)C(=O)N[C@@H](CCCCN)C(=O)N[C@@H](Cc1ccccc1)C(=O)NCC(=O)N[C@@H](CCCCN)C(=O)N[C@@H](C)C(=O)N[C@@H](Cc1ccccc1)C(=O)N[C@H](C(=O)NCC(=O)N[C@@H](CCC(=O)O)C(=O)N[C@H](C(=O)N[C@@H](CCSC)C(=O)N[C@@H](CC(N)=O)C(=O)N[C@@H](CO)C(=O)O)[C@@H](C)CC)C(C)C [MAGAININ 2] (H-GIGKFLHSAKKFGKAFVGEIMNS-OH) | – | 1 µM (≈ 2.47 µg/mL) | – | 1 µM (≈ 2.47 µg/mL) | 70.6 µM | –
